Test results reported in patent publication US8436043B2 (Takeda Pharmaceutical Company Limited, priority 2008, dated 2013).

Target: T1, human glucagon receptor (Homo sapiens, UniProt P47871)
T1 construct: made in house; host or cells: FreeStyle CHO cells, transient transfection with pMSRαneo/hGCGR; membrane fraction (35,000 rpm pellet)
Assay: Glucagon binding inhibitory activity ([125I]-glucagon binding to glucagon receptor membrane protein)
Conditions: human glucagon receptor membrane protein, [125I]-glucagon, 90 min room temperature
In short: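 Receptor source was a membrane fraction of transiently transfected CHO cells bearing human receptor; 90 min room-temperature binding, filtration harvest, scintillation counting.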

T1 sequence (P47871 26-477): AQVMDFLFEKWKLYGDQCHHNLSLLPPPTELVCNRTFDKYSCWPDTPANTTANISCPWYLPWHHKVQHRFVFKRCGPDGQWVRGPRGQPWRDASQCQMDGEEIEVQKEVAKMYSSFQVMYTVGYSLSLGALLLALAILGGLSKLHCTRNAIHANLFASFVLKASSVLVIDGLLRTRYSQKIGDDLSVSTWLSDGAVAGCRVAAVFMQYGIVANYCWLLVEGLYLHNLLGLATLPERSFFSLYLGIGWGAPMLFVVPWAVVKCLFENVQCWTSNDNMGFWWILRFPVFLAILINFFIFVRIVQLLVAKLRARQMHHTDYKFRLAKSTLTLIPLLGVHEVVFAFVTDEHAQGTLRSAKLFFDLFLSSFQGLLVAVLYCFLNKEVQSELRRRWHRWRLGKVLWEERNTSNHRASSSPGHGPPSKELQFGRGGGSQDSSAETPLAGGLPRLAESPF

IC50	SMILES
1700 nM	Cn1c(C(Nc2ccc(C(=O)NCCC(=O)O)cc2)C2CCCCC2)nc2ccccc21 (stereo not drawn) [Example A3, 3-{[(4-{[cyclohexyl(1-methyl-1H-benzimidazol-2-yl)methyl]amino}phenyl)carbonyl]amino}propanoic acid]
1800 nM	CN(CCC(=O)O)C(=O)c1ccc(NC(c2nn(C)c3ccccc23)C2CCCCC2)cc1 (stereo not drawn) [Example A7, 3-{[(4-{[cyclohexyl(1-methyl-1H-indazol-3-yl)methyl]amino}phenyl)carbonyl](methyl)amino}propanoic acid]
210 nM	O=C(O)CCNC(=O)c1ccc(NC(c2cc3ccc(C(F)(F)F)cc3s2)C2CCCCC2)cc1 (stereo not drawn) [Example A12, 3-({[4-({cyclohexyl[6-(trifluoromethyl)-1-benzothiophen-2-yl]methyl}amino)phenyl]carbonyl}amino)propanoic acid]
230 nM	Cc1c(C(Nc2ccc(C(=O)NCCC(=O)O)cc2)C2CCCCC2)oc2ccccc12 (stereo not drawn) [Example A17, 3-{[(4-{[cyclohexyl(3-methyl-1-benzofuran-2-yl)methyl]amino}phenyl)carbonyl]amino}propanoic acid]

Same assay, conditions: test compound 10 μM; 0.4% DMSO = 0%, non-labeled glucagon 1 μM = 100%; read-out: inhibitory rate (%) at 10 μM

inhibition at 10 µM	SMILES
82%	COc1cc(OC)cc(-n2cc(C(Nc3ccc(C(=O)N(C)CCC(=O)O)cc3)C3CCCCC3)c(C)n2)c1 (stereo not drawn) [Example 81, 3-[{[4-({cyclohexyl[1-(3,5-dimethoxyphenyl)-3-methyl-1H-pyrazol-4-yl]methyl}amino)phenyl]carbonyl}(methyl)amino]propanoic acid]
78%	COc1cc(OC)cc(-n2cc(C(Nc3ccc(C(=O)NCCC(=O)O)cc3)C3CCCCC3)c(C)n2)c1 (stereo not drawn) [Example 82, 3-({[4-({cyclohexyl[1-(3,5-dimethoxyphenyl)-3-methyl-1H-pyrazol-4-yl]methyl}amino)phenyl}carbonyl]amino)propanoic acid]
78%	CCOc1cccc(-n2cc(C(Nc3ccc(C(=O)N(C)CCC(=O)O)cc3)C3CCCCC3)c(CC)n2)c1 (stereo not drawn) [Example 83, 3-[{[4-({cyclohexyl[1-(3-ethoxyphenyl)-3-ethyl-1H-pyrazol-4-yl]methyl}amino)phenyl]carbonyl}(methyl)amino]propanoic acid]
76%	CCOc1cccc(-n2cc(C(Nc3ccc(C(=O)NCCC(=O)O)cc3)C3CCCCC3)c(CC)n2)c1 (stereo not drawn) [Example 84, 3-({[4-({cyclohexyl[1-(3-ethoxyphenyl)-3-ethyl-1H-pyrazol-4-yl]methyl}amino)phenyl]carbonyl}amino)propanoic acid]
68%	CCOc1cccc(-n2cc(C(CC(C)C)Nc3ccc(C(=O)N(C)CCC(=O)O)cc3)c(CC)n2)c1 (stereo not drawn) [Example 85, 3-[{[4-({1-[1-(3-ethoxyphenyl)-3-ethyl-1H-pyrazol-4-yl]-3-methylbutyl}amino)phenyl]carbonyl}(methyl)amino]propanoic acid]
76%	CCOc1cccc(-n2cc(C(CC(C)C)Nc3ccc(C(=O)NCCC(=O)O)cc3)c(CC)n2)c1 (stereo not drawn) [Example 86, 3-({[4-({1-[1-(3-ethoxyphenyl)-3-ethyl-1H-pyrazol-4-yl]-3-methylbutyl}amino)phenyl]carbonyl}amino)propanoic acid]
64%	CCc1nn(-c2cc(F)cc(F)c2)cc1C(Nc1ccc(C(=O)N(C)CCC(=O)O)cc1)C1CCCCC1 (stereo not drawn) [Example 87, 3-[{[4-({cyclohexyl[1-(3,5-difluorophenyl)-3-ethyl-1H-pyrazol-4-yl]methyl}amino)phenyl]carbonyl}(methyl)amino]propanoic acid]
71%	CCc1nn(-c2cc(F)cc(F)c2)cc1C(Nc1ccc(C(=O)NCCC(=O)O)cc1)C1CCCCC1 (stereo not drawn) [Example 88, 3-({[4-({cyclohexyl[1-(3,5-difluorophenyl)-3-ethyl-1H-pyrazol-4-yl]methyl}amino)phenyl]carbonyl}amino)propanoic acid]
62%	COCc1nn(-c2cc(C(F)(F)F)ccn2)cc1C(Nc1ccc(C(=O)N(C)CCC(=O)O)cc1)C1CCCCC1 (stereo not drawn) [Example 89, 3-[({4-[(cyclohexyl{3-(methoxymethyl)-1-[4-(trifluoromethyl)pyridin-2-yl]-1H-pyrazol-4-yl}methyl)amino]phenyl}carbonyl)(methyl)amino]propanoic acid]
66%	COCc1nn(-c2cccc(C(F)(F)F)n2)cc1C(Nc1ccc(C(=O)N(C)CCC(=O)O)cc1)C1CCCCC1 (stereo not drawn) [Example 90, 3-[({4-[(cyclohexyl{3-(methoxymethyl)-1-[6-(trifluoromethyl)pyridin-2-yl]-1H-pyrazol-4-yl}methyl)amino]phenyl}carbonyl)(methyl)amino]propanoic acid]
71%	COCc1nn(-c2cccc(C(F)(F)F)n2)cc1C(Nc1ccc(C(=O)NCCC(=O)O)cc1)C1CCCCC1 (stereo not drawn) [Example 91, 3-[({4-[(cyclohexyl{3-(methoxymethyl)-1-[6-(trifluoromethyl)pyridin-2-yl]-1H-pyrazol-4-yl}methyl)amino]phenyl}carbonyl)amino]propanoic acid]
56%	CCOc1cccc(-n2cc(C(Nc3ccc(C(=O)NCC(C)C(=O)O)cc3)C3CCCCC3)c(CC)n2)c1 (stereo not drawn) [Example 92, 3-({[4-({cyclohexyl[1-(3-ethoxyphenyl)-3-ethyl-1H-pyrazol-4-yl]methyl}amino)phenyl]carbonyl}amino)-2-methylpropanoic acid]
76%	O=C(O)CCNC(=O)c1ccc(NC(c2csc3ccccc23)C2CCCCC2)cc1 (stereo not drawn) [Example A1, 3-{[(4-{[1-benzothiophen-3-yl(cyclohexyl)methyl]amino}phenyl)carbonyl]amino}propanoic acid]
64%	CN(CCC(=O)O)C(=O)c1ccc(NC(c2csc3ccccc23)C2CCCCC2)cc1 (stereo not drawn) [Example A2, 3-{[(4-{[1-benzothiophen-3-yl(cyclohexyl)methyl]amino}phenyl)carbonyl](methyl)amino}-propanoic acid]
55%	Cn1c(C(Nc2ccc(C(=O)NCCC(=O)O)cc2)C2CCCCC2)nc2ccccc21 (stereo not drawn) [Example A3, 3-{[(4-{[cyclohexyl(1-methyl-1H-benzimidazol-2-yl)methyl]amino}phenyl)carbonyl]amino}propanoic acid]
66%	CN(CCC(=O)O)C(=O)c1ccc(NC(c2cc3ccccc3o2)C2CCCCC2)cc1 (stereo not drawn) [Example A4, 3-{[(4-{[1-benzofuran-2-yl(cyclohexyl)methyl]amino}phenyl)carbonyl](methyl)amino}-propanoic acid]

inhibition at 10 µM	SMILES
77%	CN(CCC(=O)O)C(=O)c1ccc(NC(c2cc3ccccc3s2)C2CCCCC2)cc1 (stereo not drawn) [Example A5, 3-{[(4-{[1-benzothiophen-2-yl(cyclohexyl)methyl]amino}phenyl)carbonyl](methyl)amino}-propanoic acid]
87%	O=C(O)CCNC(=O)c1ccc(NC(c2cc3ccccc3s2)C2CCCCC2)cc1 (stereo not drawn) [Example A6, 3-{[(4-{[1-benzothiophen-2-yl(cyclohexyl)methyl]amino}phenyl)carbonyl]amino}propanoic acid]
60%	CN(CCC(=O)O)C(=O)c1ccc(NC(c2nn(C)c3ccccc23)C2CCCCC2)cc1 (stereo not drawn) [Example A7, 3-{[(4-{[cyclohexyl(1-methyl-1H-indazol-3-yl)methyl]amino}phenyl)carbonyl](methyl)amino}propanoic acid]
78%	Cc1sc2ccccc2c1C(Nc1ccc(C(=O)NCCC(=O)O)cc1)C1CCCCC1 (stereo not drawn) [Example A8, 3-{[(4-{[cyclohexyl(2-methyl-1-benzothiophen-3-yl)methyl]amino}phenyl)carbonyl]amino}propanoic acid]
67%	Cc1sc2ccccc2c1C(Nc1ccc(C(=O)N(C)CCC(=O)O)cc1)C1CCCCC1 (stereo not drawn) [Example A9, 3-{[(4-{[cyclohexyl(2-methyl-1-benzothiophen-3-yl)methyl]amino}phenyl)carbonyl](methyl)amino}propanoic acid]
80%	Cc1c(C(Nc2ccc(C(=O)NCCC(=O)O)cc2)C2CCCCC2)sc2ccccc12 (stereo not drawn) [Example A10, 3-{[(4-{[cyclohexyl(3-methyl-1-benzothiophen-2-yl)methyl]amino}phenyl)carbonyl]amino}propanoic acid]
74%	O=C(O)CCNC(=O)c1ccc(NC(c2cc3cc(C(F)(F)F)ccc3s2)C2CCCCC2)cc1 (stereo not drawn) [Example A11, 3-({[4-({cyclohexyl[5-(trifluoromethyl)-1-benzothiophen-2-yl]methyl}amino)phenyl]carbonyl}amino)propanoic acid]
72%	O=C(O)CCNC(=O)c1ccc(NC(c2cc3ccc(C(F)(F)F)cc3s2)C2CCCCC2)cc1 (stereo not drawn) [Example A12, 3-({[4-({cyclohexyl[6-(trifluoromethyl)-1-benzothiophen-2-yl]methyl}amino)phenyl]carbonyl}amino)propanoic acid]
85%	Cc1c(C(Nc2ccc(C(=O)N(C)CCC(=O)O)cc2)C2CCCCC2)sc2ccccc12 (stereo not drawn) [Example A13, 3-{[(4-{[cyclohexyl(3-methyl-1-benzothiophen-2-yl)methyl]amino}phenyl)carbonyl](methyl)amino}propanoic acid]
73%	O=C(O)CCNC(=O)c1ccc(NC(c2nn(-c3ccccc3)c3ccccc23)C2CCCCC2)cc1 (stereo not drawn) [Example A14, 3-{[(4-{[cyclohexyl(1-phenyl-1H-indazol-3-yl)methyl]amino}phenyl)carbonyl]amino}propanoic acid]
72%	CN(CCC(=O)O)C(=O)c1ccc(NC(c2nn(-c3ccccc3)c3ccccc23)C2CCCCC2)cc1 (stereo not drawn) [Example A15, 3-{[(4-{[cyclohexyl(1-phenyl-1H-indazol-3-yl)methyl]amino}phenyl)carbonyl](methyl)amino}propanoic acid]
74%	Cc1c(C(Nc2ccc(C(=O)N(C)CCC(=O)O)cc2)C2CCCCC2)oc2ccccc12 (stereo not drawn) [Example A16, 3-{[(4-{[cyclohexyl(3-methyl-1-benzofuran-2-yl)methyl]amino}phenyl)carbonyl](methyl)amino}propanoic acid]
72%	Cc1c(C(Nc2ccc(C(=O)NCCC(=O)O)cc2)C2CCCCC2)oc2ccccc12 (stereo not drawn) [Example A17, 3-{[(4-{[cyclohexyl(3-methyl-1-benzofuran-2-yl)methyl]amino}phenyl)carbonyl]amino}propanoic acid]
71%	O=C(O)CCNC(=O)c1ccc(NC(c2nn(C3CCCCC3)c3ccccc23)C2CCCCC2)cc1 (stereo not drawn) [Example A19, 3-{[(4-{[cyclohexyl(1-cyclohexyl-1H-indazol-3-yl)methyl]amino}phenyl)carbonyl]amino}propanoic acid]
72%	COc1cccc2cc(C(Nc3ccc(C(=O)NCCC(=O)O)cc3)C3CCCCC3)oc12 (stereo not drawn) [Example A20, 3-{[(4-{[cyclohexyl(7-methoxy-1-benzofuran-2-yl)methyl]amino}phenyl)carbonyl]amino}propanoic acid]
62%	COc1cccc2cc(C(Nc3ccc(C(=O)N(C)CCC(=O)O)cc3)C3CCCCC3)oc12 (stereo not drawn) [Example A21, 3-{[(4-{[cyclohexyl(7-methoxy-1-benzofuran-2-yl)methyl]amino}phenyl)carbonyl](methyl)amino}propanoic acid]
